# Experiment: Physical stability and aqueous dissolution of monohydrate versus anhydrate form
# Format: physicochemical
Compound,stability in solution,aqueous dissolution compared to the anhydrate form,physical stability compared to the anhydrate form
"COc1ccc(COc2ccc(Cn3c(N)nc4cc(-c5cnn(C)c5)cnc43)cc2OC)cc1 [GZ389988, 3-(3-methoxy-4-((4-methoxybenzyl)oxy)benzyl)-6-(1-methyl-1H-pyrazol-4-yl)-3H-imidazo[4,5-b]pyridin-2-amine]",relatively unstable in solution,–,–
"COc1ccc(COc2ccc(Cn3c(N)nc4cc(-c5cnn(C)c5)cnc43)cc2OC)cc1 [GZ389988A, 3-(3-methoxy-4-((4-methoxybenzyl)oxy)benzyl)-6-(1-methyl-1H-pyrazol-4-yl)-3H-imidazo[4,5-b]pyridin-2-amine monohydrate]",–,slower aqueous dissolution,better physical stability

# — patent US11110055B2, “Pharmaceutical formulations of tropomyosin related kinase (TRK) inhibitors” (Genzyme Corporation, priority 2014, dated 2021)
